From patent publication US12157730B2, “Heteroaryl derivative, method for producing same, and pharmaceutical composition comprising same as effective component” (VORONOI INC., priority 2019, dated 2024)

The compounds below were run against T1, Ba/F3 cell EGFR Exon20 ins NPH (Homo sapiens, UniProt P00533, INS773NPH) (assay: Ba/F3 cell proliferation suppression, EGFR Exon20 ins NPH). Conditions: GI50 class; Ba/F3 cell line with NPH inserted at Exon20 of EGFR; 72 hours.
T1 construct: expressed in transfected cells; host or cells: Ba/F3
Assay type: cell-based
Procedure, shortened: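 Cells (3000–5000/well) plated 24 h before compound, 12-point 3-fold dilutions at 0.3 nM to 50 um final; Ba/F3 lines grown with 5 ng/ml IL-3. Viability by CellTiter-Glo luminescence after 72 h, growth ratio vs control, GI50 from curves; triplicate.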

| SMILES | Ba/F3 (NPH) Activity |
| --- | --- |
| C=CC(=O)Nc1cc(Nc2cc(N3OCC[C@@H]3c3cccc(OC)c3)ncn2)c(OC)cc1N1CCC(N(C)C)CC1 [compound 731] | B (50 nM ≤ GI50 < 500 nM) |
| C=CC(=O)Nc1cc(Nc2cc(N3OCC[C@@H]3c3ccccc3)ncn2)c(OC)cc1N1CCC(N2C[C@@H]3C[C@H]2CN3CC)CC1 [compound 737, N-(2-(4-((1S,4S)-5-ethyl-2,5-diazabicyclo [2.2.1]heptane-2-yl)piperidine-1-yl)-4-methoxy-5-((6-((R)-3-phenylisoxazolidine-2-yl)pyrimidine-4-yl)amino)phenyl) acrylamide] | A (GI50 < 50 nM) |
| C=CC(=O)Nc1cc(Nc2cc(N3OCC[C@@H]3c3cc(F)ccc3F)ncn2)c(OC)cc1N1C[C@H]2CCN(C)[C@H]2C1 [compound 892, N-(5-((6-((R)-3-(2,5-difluorophenyl)isoxazolidine-2-yl)pyrimidine-4-yl)amino)-4-methoxy-2-((3aR,6aR)-1-methylhexahydropyrrolo [3,4-b]pyrrole-5(1H)-yl)phenyl) acrylamide] | A (GI50 < 50 nM) |
| C=CC(=O)Nc1cc(Nc2cc(N3OCC[C@@H]3c3cccc(C(F)(F)F)c3)ncn2)c(OC)cc1N1CCN(C2CC2)CC1 [compound 940, N-(2-(4-cyclopropylpiperazine-1-yl)-4-methoxy-5-((6-((R)-3-(3-(trifluoromethyl)pheyyl)isoxazolidine-2-yl)pyrimidine-4-yl)amino)phenyl) acrylamide] | B (50 nM ≤ GI50 < 500 nM) |
| C=CC(=O)Nc1cc(Nc2cc(N3OCC[C@@H]3c3ccc(Cl)cc3)ncn2)c(OC)cc1N1CCC(N2C[C@H]3C[C@@H]2CO3)CC1 [compound 867, N-(2-(4-((1R,4R)-2-oxa-5-azabicyclo [2.2.1]heptane-5-yl)piperidine-1-yl)-5-((6-((R)-3-(4-chlorophenyl)isoxazolidine-2-yl)pyrimidine-4-yl)amino)-4-methoxyphenyl) acrylamide] | A (GI50 < 50 nM) |
| C=CC(=O)Nc1cc(Nc2cc(N3OCC[C@@H]3c3ccc(C)nc3)ncn2)c(OC)cc1N1C[C@H]2C[C@@H]1CO2 [Example 224, N-(2-((1R,4R)-2-oxa-5-azabicyclo[2.2.1]heptane-5-yl)-4-methoxy-5-((6-((R)-3-(6-methylpyridine-3-yl)isoxazolidine-2-yl)pyrimidine-4-yl)amino)phenyl)acrylamide] | C (500 nM ≤ GI50 < 5000 nM) |
| C=CC(=O)Nc1cc(Nc2cc(N3OCC[C@@H]3c3cc(F)cc(Cl)c3)ncn2)c(OC)cc1N1CCC(N2C[C@H]3C[C@@H]2CO3)CC1 [compound 590, N-(2-(4-((1R,4R)-2-oxa-5-azabicyclo[2.2.1]heptane-5-yl)piperidine-1-yl)-5-((6-((R)-3-(3-chloro-5-fluorophenyl)isoxazolidine-2-yl)pyrimidine-4-yl)amino)-4-methoxyphenyl) acrylamide] | A (GI50 < 50 nM) |
| C=CC(=O)Nc1cc(Nc2cc(N3OCC[C@@H]3c3cccc4ccccc34)ncn2)c(OC)cc1N1CCN(C2COC2)CC1 [compound 439, N-(4-methoxy-5-((6-((R)-3-(naphthalene-1-yl)isoxazolidine-2-yl)pyrimidine-4-yl)amino)-2-(4-(oxetane-3-yl)piperazine-1-yl)phenyl) acrylamide] | A (GI50 < 50 nM) |
| C=CC(=O)Nc1cc(Nc2cc(N3OCC[C@@H]3c3ccc(Cl)cc3F)ncn2)c(OC)cc1N1CCC(N2CCN(C(C)C)CC2)CC1 [compound 408, N-(5-((6-((R)-3-(4-chloro-2-fluorophenyl)isoxazolidine-2-yl)pyrimidine-4-yl)amino)-2-(4-(4-isopropylpiperazine-1-yl)piperidine-1-yl)-4-methoxyphenyl) acrylamide] | A (GI50 < 50 nM) |
| C=CC(=O)Nc1cc(Nc2cc(N3OCC[C@@H]3c3ccc(F)c(Cl)c3)ncn2)c(OC)cc1N1CCC(N2CC[C@@H](N(C)C)C2)CC1 [compound 769, N-(5-((6-((R)-3-(3-chloro-4-fluorophenyl)isoxazolidine-2-yl)pyrimidine-4-yl)amino)-2-(4-((R)-3-(dimethylamino)pyrolidine-1-yl)piperidine-1-yl)-4-methoxyphenyl) acrylamide] | A (GI50 < 50 nM) |
| C=CC(=O)Nc1cc(Nc2cc(N3OCC[C@@H]3c3cc(F)cc(F)c3)ncn2)c(O[C@H](C)C(F)(F)F)cc1N1CCC(N2CCN(C3CC3)CC2)CC1 [Example 119, N-(2-(4-(4-cyclopropylpiperazine-1-yl)piperidine-1-yl)-5-((6-((R)-3-(3,5-difluorophenyl)isoxazolidine-2-yl)pyrimidine-4-yl)amino)-4-(((R)-1,1,1-trifluoropropane-yl)oxy)phenyl)acrylamide] | A (GI50 < 50 nM) |
| C=CC(=O)Nc1cc(Nc2cc(N3OCC[C@@H]3c3cc(F)ccc3F)ncn2)c(OC)cc1N1CCOCC1 [compound 825, N-(5-((6-((R)-3-(2,5-difluorophenyl)isoxazolidine-2-yl)pyrimidine-4-yl)amino)-4-methoxy-2-morpholinophenyl) acrylamide] | A (GI50 < 50 nM) |
| C=CC(=O)Nc1cc(Nc2cc(N3OCC[C@@H]3c3ccc(Cl)cc3F)ncn2)c(OC)cc1N1CCC(N2C[C@@H](C)O[C@@H](C)C2)CC1 [compound 374, N-(5-((6-((R)-3-(4-chloro-2-fluorophenyl)isoxazolidine-2-yl)pyrimidine-4-yl)amino)-2-(4-((2S,6R)-2,6-dimethylmorpholino)piperidine-1-yl)-4-methoxyphenyl) acrylamide] | A (GI50 < 50 nM) |
| C=CC(=O)Nc1cc(Nc2cc(N3OCC[C@@H]3c3cccc(Cl)c3C)ncn2)c(OC)cc1N1CCC(N2CCN(C(C)C)CC2)CC1 [compound 580, N-(5-((6-((R)-3-(3-chloro-2-methylphenyl)isoxazolidine-2-yl)pyrimidine-4-yl)amino)-2-(4-(4-isopropylpiperazine-1-yl)piperidine-1-yl)-4-methoxyphenyl) acrylamide] | A (GI50 < 50 nM) |
| C=CC(=O)Nc1cc(Nc2cc(N3OCC[C@@H]3c3ccc(Cl)c(Cl)c3)ncn2)c(OC)cc1N1C[C@H]2C[C@@H]1CO2 [compound 671, N-(2-((1R,4R)-2-oxa-5-azabicyclo[2.2.1]heptane-5-yl)-5-((6-((R)-3-(3,4-dichlorophenyl)isoxazolidine-2-yl)pyrimidine-4-yl)amino)-4-methoxyphenyl) acrylamide] | A (GI50 < 50 nM) |
| C=CC(=O)Nc1cc(Nc2cc(N3OCC[C@@H]3c3cccc(F)c3F)ncn2)c(OC)cc1N1CCN(C)[C@H](C)C1 [compound 884, N-(5-((6-((R)-3-(2,3-difluorophenyl)isoxazolidine-2-yl)pyrimidine-4-yl)amino)-2-((R)-3,4-dimethylpiperazine-1-yl)-4-methoxyphenyl) acrylamide] | A (GI50 < 50 nM) |
| C=CC(=O)Nc1cc(Nc2cc(N3OCC[C@@H]3c3cccc(C(F)(F)F)c3)ncn2)c(OC)cc1N1CCN(C)CC1 [compound 450, N-(4-methoxy-2-(4-methylpiperazine-1-yl)-5-((6-((R)-3-(3-(trifluoromethyl)phenyl)isoxazolidine-2-yl)pyrimidine-4-yl)amino)phenyl)acrylamide] | A (GI50 < 50 nM) |
| C=CC(=O)Nc1cc(Nc2cc(N3OCC[C@@H]3c3cccc(OC)c3)ncn2)c(OC)cc1N1CCC(N2CCOCC2)CC1 [compound 775, N-(4-methoxy-5-((6-((R)-3-(3-methoxyphenyl)isoxazolidine-2-yl)pyrimidine-4-yl)amino)-2-(4-morpholinopiperidine-1-yl)phenyl)acrylamide] | A (GI50 < 50 nM) |
| C=CC(=O)Nc1cc(Nc2cc(N3OCC[C@@H]3c3ccc(F)c(F)c3)ncn2)c(OC)cc1N1CCC(N2CCN(C3CC3)CC2)CC1 [Example 161, N-(2-(4-(4-cyclopropylpiperazine-1-yl)piperidine-1-yl)-5-((6-((R)-3-(3,4-difluorophenyl)isoxazolidine-2-yl)pyrimidine-4-yl)amino)-4-methoxyphenyl) acrylamide] | A (GI50 < 50 nM) |
| C=CC(=O)Nc1cc(Nc2cc(N3OCC[C@@H]3c3ccc(Cl)cc3)ncn2)c(OC)cc1N1CCC(N2C[C@@H]3C[C@H]2CO3)CC1 [compound 866, N-(2-(4-((1S,4S)-2-oxa-5-azabicyclo [2.2.1]heptane-5-yl)piperidine-1-yl)-5-((6-((R)-3-(4-chlorophenyl)isoxazolidine-2-yl)pyrimidine-4-yl)amino)-4-methoxyphenyl) acrylamide] | A (GI50 < 50 nM) |
| C=CC(=O)Nc1cc(Nc2cc(N3OCC[C@@H]3c3cccc(Cl)c3F)ncn2)c(OC)cc1N1CCC(N2CCCN(C3CC3)CC2)CC1 [compound 358, N-(5-((6-((R)-3-(3-chloro-2-fluorophenyl)isoxazolidine-2-yl)pyrimidine-4-yl)amino)-2-(4-(4-cyclopropyl-1,4-diazepane-1-yl)piperidine-1-yl)-4-methoxyphenyl) acrylamide] | A (GI50 < 50 nM) |
| C=CC(=O)Nc1cc(Nc2cc(N3OCC[C@@H]3c3ccc(Cl)c(Cl)c3)ncn2)c(OC)cc1N1CCN(C2CCN(C)CC2)CC1 [compound 685, N-(5-((6-((R)-3-(3,4-dichlorophenyl)isoxazolidine-2-yl)pyrimidine-4-yl)amino)-4-methoxy-2-(4-(1-methylpiperidine-4-yl)piperazine-1-yl)phenyl) acrylamide] | A (GI50 < 50 nM) |
| C=CC(=O)Nc1cc(Nc2cc(N3OCC[C@H]3c3c(F)cccc3F)ncn2)c(OC)cc1N1CCC(N2CCN(C)CC2)CC1 [compound 896, N-(5-((6-((S)-3-(2,6-difluorophenyl)isoxazolidine-2-yl)pyrimidine-4-yl)amino)-4-methoxy-2-(4-(4-methylpiperazine-1-yl)piperidine-1-yl)phenyl)acrylamide] | C (500 nM ≤ GI50 < 5000 nM) |
